The nature of data set [1]: Dynamic moisture sorption analysis (DVS). In kind it is physicochemical. Particulars: for moisture adsorbed in DVS test: at 80% RH. As for the experimental part:
Dynamic moisture sorption analysis (DVS): DVS was determined using IGAsorp (Hiden Isochema, UK). The sample was tested at a targeted RH of 10 to 90% full cycle in step mode. The analysis was performed in 10% RH increments.

A short description of data set [2]: Solubility test in pH 1.2, 6.8 and 7.4 buffers (HPLC, pH of filtrate, XRPD of remaining solid). In kind it is physicochemical. Particulars: for remaining solid by XRPD: pH 1.2 buffer solution; for change of pH of the buffer solutions: HCl salt: pH 6.8 and 7.4 buffer solutions, K salt: buffers; for solubility compared with Compound 1: buffer solutions. As to the method:
(§1) HPLC ANALYSIS: a representative HPLC method is shown below, which can be used, for example, to analyze the purity, solubility, and stability of the salts herein.
Solubility test: About 15-20 mg of Compound 1 (Form II), K salt (Form III) and HCl salt (Form I) were weighed into vials, and then added 1.5 mL of pH 1.2, pH 6.8 or pH 7.4 buffer to make saturated solutions.
All suspensions were kept shaking with 200 rpm at room temperature for up to 24 hours. At 30 min and 24 hours, the sample solution was filtered and analyzed by HPLC to determine the solubility. The pH of filtrates was also measured. At 24 hours, remaining solids were collected and determined by XRPD.
First, the solubility of Compound 1, HCl salt and K salt was tested in pH 1.2, 6.8 and 7.4 buffer solutions at 25° C. for 30 min and 24 hours. The solubility data and pH value of filtrate were listed in Table 6 and Table 7, respectively.
Additional solubility of Compound 1 and the HCl salt was tested in pH 6.8 and 7.4 for 30 min and 2 hours.

A further data set relates to human hepatocyte. The following applies: compared to INCB-24360 and others of WO2014150677 and WO2014150646; cited from earlier work.
Data set [3] is described as follows: Solid stability test at 40° C./75% RH (HPLC, XRPD). In kind it is physicochemical. Particulars: for physical and chemical stability (XRPD and HPLC): 40° C./75% RH during testing period (9 days; HCl salt 7 days); for Purity (% Area) Initilal: solid stability test, 0 days. As for the experimental part: as §1
Stability test: About 15 mg of Compound 1 (Form II), and K salt (Form III) were weighed into vials, and put at the condition of 40° C./75% RH for 9 days. At 0 and 9 days, the solid sample was dissolved using methanol/water (1/1) to make a solution with a concentration of 0.2 mg/mL. Sample solutions were analyzed by HPLC and solid samples were examined by XRPD.
About 15 mg of Compound 1 HCl salt (Form I) was weighed into vials, and put at the condition of 40° C./75% RH for 7 days. At 0 and 7 days, the solid sample was dissolved using methanol/water (1/1) to make a solution with the concentration of 0.2 mg/mL. The sample solution was analyzed by HPLC and solid sample was analyzed by XRPD.
K salt and Compound 1 was stored at 40° C./75% RH for 9 days, while HCl salt was stored for 7 days.

Data set [4] in a line: Physical stability of Form I under heat and high humidity (XRPD). The class given is physicochemical. Particulars: for crystalline form by XRPD after storage at high humidity: 25° C./92.5% RH for 10 days; for crystalline form by XRPD after storage under heat: 60° C. for 10 days. As for the experimental part: Samples of HCl salt Form I was put into the condition of 92.5% RH or 60° C. for 10 days. Then the sample was analyzed by XRPD. […] XRPD patterns were shown in FIG. 1C (92.5% RH for 10 days) and FIG. 1D (60° C. for 10 days).

Data set [5] in a line: Grinding of Form I (XRPD). The class given is physicochemical. The following applies: grinded for 2 min and 5 min. As for the experimental part: Form I of the HCl salt was grinded for 2 min and 5 min.
Data set [6] is described as follows: Stability of HCl salt Form I in water and in solvent. In kind it is physicochemical.
Setting [7] is: additional test (Table 8), pH 6.8 buffer.
Where [8] appears, read: additional test (Table 8), pH 6.8 buffer, 2 hours.
The mark [9] stands for this setting: additional test (Table 8), pH 7.4 buffer.
Where [10] appears, read: additional test (Table 8), pH 7.4 buffer, 2 hours.
Where [11] appears, read: pH 1.2 buffer, 24 hours, 25° C.
Setting [12] is: pH 6.8 buffer, 24 hours, 25° C.
The mark [13] stands for this setting: pH 7.4 buffer, 24 hours, 25° C.

≈ marks a conversion by molar mass, not a printed value. Entries after “also recorded” stand apart in the source; their conditions may differ. Structures can show the parent of a compound that is named as a salt.

Regarding `CCN(c1ncc(C2(C(=O)O)CCC2)cc1Nc1ccc(Cl)cc1)C1CCOCC1` [Compound 1, 1-(5-((4-chlorophenyl)amino)-6-(ethyl(tetrahydro-2H-pyran-4-yl)amino)pyridin-3-yl)cyclobutane-1-carboxylic acid], the “XRPD pattern after DVS test” value is listed as “not changed” in data set [1] and “remained unchanged” in data set [1] (listed as Form II). In addition, the “moisture adsorbed in DVS test” value in data set [1] is “about 0.37%”. In addition, the “Solubility (mg/mL) 30 min” value in data set [2] (setting [7]) stood at 0.11 mg/mL (≈ 256 µM); in data set [2] (setting [9]), 0.39 mg/mL (≈ 907 µM); in data set [2] (pH 1.2 buffer, 25° C.) it was 0.49 mg/mL (≈ 1140 µM); in data set [2] (pH 6.8 buffer, 25° C.), 0.13 mg/mL (≈ 302 µM); in data set [2] (pH 7.4 buffer, 25° C.), 0.44 mg/mL (≈ 1020 µM). In addition, the results for the “Solubility (mg/mL) 2 hours” value in data set [2] (setting [8]) and in data set [2] (setting [10]) were 0.12 mg/mL (≈ 279 µM) and 0.44 mg/mL (≈ 1020 µM), respectively. Moreover, in data set [2] (24 hours), the “remaining solid by XRPD” value is “changed into HCl salt”. Besides, the “pH value of filtrate 30 min” value in data set [2] (pH 1.2 buffer) amounted to 1.11; in data set [2] (pH 6.8 buffer), 6.87; in data set [2] (pH 7.4 buffer), 7.39. Further, the “pH value of filtrate 24 hours” value in data set [2] (pH 1.2 buffer, 24 hours) turned out to be 1.16; in data set [2] (pH 6.8 buffer, 24 hours), 6.81; in data set [2] (pH 7.4 buffer, 24 hours) it was 7.38. In addition, the “Solubility (mg/mL) 24 hours” value came out at 0.51 mg/mL (≈ 1190 µM) in data set [2] (setting [11]), 0.04 mg/mL (≈ 93 µM) in data set [2] (setting [12]) and 0.50 mg/mL (≈ 1160 µM) in data set [2] (setting [13]). Moreover, the “human hepatocyte clearance compared to other IDO inhibitors” value in the data set on human hepatocyte was “better human hepatocyte clearance”. The “physical and chemical stability (XRPD and HPLC)” value (“physical and chemical stability” below) in data set [3] is “physically and chemically stable”. In addition, in data set [3], the “Purity (% Area) Initilal” value is on record as 99.53 % Area. Further, the “Purity (% Area) 9 days” value in data set [3] (solid, 40° C./75% RH) was found to be 99.53 % Area.

As to `CCN(c1ncc(C2(C(=O)O)CCC2)cc1Nc1ccc(Cl)cc1)C1CCOCC1` [K salt], the “XRPD pattern after DVS test” value in data set [1] (listed as potassium salt) is “not changed”. Further, in data set [1] (listed as potassium salt), the “moisture adsorbed in DVS test” value is listed as 1.32%. The “change of pH of the buffer solutions” value in data set [2] was “increased”. Moreover, the “solubility compared with Compound 1” value in data set [2] was “much higher; also recorded: higher solubility than Compound 1”; in data set [2] (listed as potassium salt), “more soluble than Compound 1”. In data set [2] (24 hours), the “remaining solid by XRPD” value is “changed into HCl salt”. Besides, the entries for the “pH value of filtrate 30 min” value in data set [2] (pH 1.2 buffer), in data set [2] (pH 6.8 buffer) and in data set [2] (pH 7.4 buffer) were 1.18, 6.84 and 7.62, respectively. Also, the “Solubility (mg/mL) 30 min” value is reported as 9.52 mg/mL in data set [2] (pH 1.2 buffer, 25° C.); 2.55 mg/mL in data set [2] (pH 6.8 buffer, 25° C.); 6.38 mg/mL in data set [2] (pH 7.4 buffer, 25° C.). Further, the “pH value of filtrate 24 hours” value in data set [2] (pH 1.2 buffer, 24 hours) came to 1.23; in data set [2] (pH 6.8 buffer, 24 hours), 7.46; in data set [2] (pH 7.4 buffer, 24 hours), 8.02. Further, the figures for the “Solubility (mg/mL) 24 hours” value in data set [2] (setting [11]), in data set [2] (setting [12]) and in data set [2] (setting [13]) were 0.71 mg/mL, 0.55 mg/mL and 2.25 mg/mL, respectively. In data set [3], the “physical and chemical stability” value was “physically and chemically stable”. In data set [3], the “Purity (% Area) Initilal” value worked out at 99.80 % Area. In data set [3] (solid, 40° C./75% RH), the “Purity (% Area) 9 days” value is recorded as 99.79 % Area.

For `CCN(c1ncc(C2(C(=O)O)CCC2)cc1Nc1ccc(Cl)cc1)C1CCOCC1` [HCl salt], the “crystalline form by XRPD after storage at high humidity” value in data set [4] is given as “unchanged”; in data set [4] (listed as Form I), “remained unchanged”. The “crystalline form by XRPD after storage under heat” value is “unchanged” in data set [4] and “remained unchanged” in data set [4] (listed as Form I). For the same molecule, the “XRPD pattern after DVS test” value in data set [1] is “not changed”; in data set [1] (listed as Form I) it was “remained unchanged”. Besides, in data set [5], the “crystalline form by XRPD after grinding” value is on record as “still Form I”. In addition, the “change of pH of the buffer solutions” value in data set [2] is given as “obviously decreased”. Also, the “Solubility (mg/mL) 30 min” value in data set [2] (setting [7]) is 1.62 mg/mL; in data set [2] (setting [9]) it was 3.41 mg/mL; in data set [2] (pH 1.2 buffer, 25° C.), 0.58 mg/mL; in data set [2] (pH 6.8 buffer, 25° C.), 1.45 mg/mL; in data set [2] (pH 7.4 buffer, 25° C.), 3.66 mg/mL. For the same molecule, the figures for the “Solubility (mg/mL) 2 hours” value in data set [2] (setting [8]) and in data set [2] (setting [10]) were 0.95 mg/mL and 3.53 mg/mL, respectively. Also, the “solubility compared with Compound 1” value in data set [2] is listed as “higher solubility than Compound 1; also recorded: more soluble than Compound 1”. The solubility at 24 h in data set [2] (pH 1.2 buffer, 25 °C, pH 1.2, simulated gastric fluid, thermodynamic from solid, pH 1.2 buffer, 24 hours, 25° C., read-out: Solubility (mg/mL) 24 hours) is 0.65 mg/mL. Moreover, the “pH value of filtrate 30 min” value in data set [2] (pH 1.2 buffer) worked out at 1.10; in data set [2] (pH 6.8 buffer), 6.59; in data set [2] (pH 7.4 buffer) it was 7.02. For the same molecule, the “pH value of filtrate 24 hours” value in data set [2] (pH 1.2 buffer, 24 hours) is reported as 1.17; in data set [2] (pH 6.8 buffer, 24 hours), 3.34; in data set [2] (pH 7.4 buffer, 24 hours), 6.06. The “change of solubility with time” value in data set [2] (pH 6.8 and 7.4 buffers at 24 hours) is given as “obviously decreased”; in data set [2] (pH 6.8 buffer at 2 hours), “decreased”; in data set [2] (pH 7.4 buffer, 2 hours versus 30 min), “almost constant”. Also, in data set [2] (pH 6.8 and 7.4 buffers, 2 hours), the “solid by XRPD” value was “part of HCl salt had been changed to be Compound 1”. Besides, the “Solubility (mg/mL) 24 hours” value was 0.02 mg/mL in data set [2] (setting [12]) and 0.49 mg/mL in data set [2] (setting [13]). In addition, the “physical and chemical stability” value in data set [3] was “physically and chemically stable”. The “Purity (% Area) Initilal” value in data set [3] is given as 99.81 % Area. Besides, the “Purity (% Area) 7 days” value in data set [3] (solid, 40° C./75% RH, 7 days) turned out to be 99.78 % Area. For the same molecule, the degradation in solvent entry in data set [6] (in THE at 60° C.) is “can be degraded”. Also, in data set [6] (in water), the dissociation in water entry was “can dissociate to Compound 1”.

On to `CCN(c1ncc(C2(C(=O)O)CCC2)cc1Nc1ccc(Cl)cc1)C1CCOCC1` [Na salt], for which the “XRPD pattern after DVS test” value in data set [1] was “changed”; in data set [1] (listed as Form IV) it was “changed into a different form”. The figures for the “moisture adsorbed in DVS test” value in data set [1] and in data set [1] (listed as sodium salt) were 30.84% and “about 30%”, respectively.

(Values after patent US12509448B2, “Salts of indoleamine 2,3-dioxygenase inhibitors” (INVENTISBIO CO., LTD., priority 2019, dated 2025).)
